Read-outs that look alike come from different tables or passages of the source. Non-standard residues stand in square brackets, D forms with d. Residues, ends and D or L forms follow the SMILES beside them. *: point of attachment. DOTA = O=C(O)CN1CCN(CC(=O)O)CCN(CC(=O)*)CCN(CC(=O)O)CC1; 1Nal = N[C@@H](Cc1cccc2ccccc12)C(=O)O; NMeNle = CCCC[C@H](NC)C(=O)O
Tests used:
[1] = protein binding in human serum (Sephadex G-50 size-exclusion chromatography); format: in vitro ADME
Description: The protein binding in human serum (500 pmol/mL, n = 2) was assessed by Sephadex G-50 size-exclusion chromatography (GE Healthcare Illustra, Little Chalfont, U.K.) for up to 24 h.

[2] = log D, octanol/PBS distribution; format: physicochemical; details: 111In-labeled peptide
[3] = in vivo stability studies in BALB/c mice; details: i.v.
Description: Metabolic studies evaluating the stability of the radioligands were carried out in 7- to 8-week-old female BALB/c mice. With the ^111In-labeled peptide derivatives, the studies were performed for the time point of 10 min p.i. (n = 2). With the ^177Lu-labeled peptide derivatives, additional studies were also carried out for the time point of 30 min and 60 min p.i. (n = 1 for each time point). To allow monitoring of the metabolites by analytical HPLC, the mice were injected with a higher amount of radioactivity (6–9 MBq indium-111, 30–45 MBq lutetium-177) corresponding to ∼1 nmol total peptide intravenously through a lateral tail vein. At different time points, the mice were euthanized by cervical dislocation and urine and a blood sample was collected. Liver and kidneys were excised and homogenized in 20 mM HEPES buffer pH 7.3. The amount of intact radiopeptide and the formation of metabolites was analyzed by analytical HPLC. Prior to injection into the HPLC system, all samples were treated as described for human serum and rat organ homogenate samples.

[4] = system: A431-CCK2R/A431-mock xenografts; assay: biodistribution in A431-CCK2R/A431-mock xenografted BALB/c nude mice; format: in vivo
Description: (§1) Biodistribution studies evaluating the tumor uptake of the radiolabeled peptides were performed in 7- to 9-week-old female athymic BALB/c nude mice (Charles River, Sulzfeld, Germany). For the induction of tumor xenografts, 150 μL of DMEM containing 2 × 10^6 A431-CCK2R and A431-mock cells were injected subcutaneously in the right and left flank of each mouse, respectively. And 10–14 days after injection, tumors reached a medium weight of ∼0.25 g. The mice were divided into groups of four and injected intravenously via a lateral tail vein with 0.2 MBq of ^111In-labeled compound (0.02 nmol) and 0.7 and 1.5 MBq of the ^177Lu-labeled compound (0.02 and 0.15 nmol). At 4 and 12 h p.i., the mice were sacrificed and the tumors and other tissues (blood, lung, heart, muscle, spleen, intestine, liver, kidneys, stomach, and pancreas) were removed, weighed, and their radioactivity measured in the γ counter together with the rest of the body. Initial biodistribution studies were performed with the three ^177Lu-labeled CCK2R-targeting ligands at an injected peptide amount of 20 pmol for the time point of 4 h p.i. From these studies, two peptide analogues were selected to further characterize the biodistribution profile also at a later time point of 12 h p.i. and at a higher injected peptide amount of 150 pmol. Additional animal studies were performed for the ^111In-labeled conjugates. Percentage of injected activity per gram tissue (%IA/g), tumor-to-organ activity ratios, as well as whole body activity were calculated for each sample and statistical analysis using independent two-population t-test (significance level p < 0.05) was performed using Origin software. For the comparison of more than two groups, data were analyzed using one-way analysis of variance (ANOVA) Holm–Bonferroni-adjusted post hoc analysis (significance level p < 0.05) using Microsoft Excel 2010 software (Microsoft Excel 2010, Microsoft Corporation, WA).

[5] = as above; format: in vivo; details: female, athymic BALB/c nude, mouse, iv, 20 pmol, total radioactivity, 20 pmol, 4 h p.i.
Description: as §1

[6] = 4 h after incubation, read-out: protein binding (%) 4 h (converted)
[7] = 24 h after incubation, read-out: protein binding (%) 24 h (converted)

`CCCC[C@@H](C(=O)N[C@@H](CC(=O)O)C(=O)N[C@@H](Cc1cccc2ccccc12)C(N)=O)N(C)C(=O)[C@H](Cc1c[nH]c2ccccc12)NC(=O)CNC(=O)[C@H](Cc1ccc(O)cc1)NC(=O)[C@@H]1CCCN1C(=O)[C@@H](CCC(=O)O)NC(=O)CN1CCN(CC(=O)O)CCN(CC(=O)O)CCN(CC(=O)O)CC1` [[^111In]In-1, metal not drawn] ({DOTA}-[dE]PYGW[NMeNle]D[1Nal]-NH2) gave a fraction unbound [1, 6] of 0.555, a fraction unbound [1, 7] of 0.472 and a logD [2] of -2.03.

`CCCC[C@@H](C(=O)N[C@@H](CC(=O)O)C(=O)N[C@@H](Cc1cccc2ccccc12)C(N)=O)N(C)C(=O)[C@H](Cc1c[nH]c2ccccc12)NC(=O)CNC(=O)[C@@H]1CCCN1C(=O)[C@H](Cc1ccc(O)cc1)NC(=O)[C@@H](CCC(=O)O)NC(=O)CN1CCN(CC(=O)O)CCN(CC(=O)O)CCN(CC(=O)O)CC1` [[^111In]In-2, metal not drawn] ({DOTA}-[dE]YPGW[NMeNle]D[1Nal]-NH2) showed a fraction unbound [1, 6] of 0.432, a fraction unbound [1, 7] of 0.466 and a logD [2] of -1.75.

In the case of `CCCC[C@@H](C(=O)N[C@@H](CC(=O)O)C(=O)N[C@@H](Cc1cccc2ccccc12)C(N)=O)N(C)C(=O)[C@H](Cc1c[nH]c2ccccc12)NC(=O)CNC(=O)[C@@H]1CCCN1C(=O)[C@H](Cc1ccc(O)cc1)NC(=O)[C@@H](CCC(=O)O)NC(=O)CN1CCN(CC(=O)O)CCN(CC(=O)O)CCN(CC(=O)O)CC1` [[^111In]In-2] [metal not drawn] ({DOTA}-[dE]YPGW[NMeNle]D[1Nal]-NH2), the “intact radiopeptide in blood” value ([3]; 10 min p.i.) is reported as 82.3 ± 1.8%, the “intact radiopeptide in kidneys” value ([3]; 10 min p.i.) is reported as 30.2 ± 0.5% and the “intact radiopeptide in liver” value ([3]; 10 min p.i.) is reported as 73.9 ± 1.2%. For the same compound, the “intact radiopeptide in urine” value ([3]; 10 min p.i.) was 30.3 ± 5.9%.

Compound `CCCC[C@@H](C(=O)N[C@@H](CC(=O)O)C(=O)N[C@@H](Cc1cccc2ccccc12)C(N)=O)N(C)C(=O)[C@H](Cc1c[nH]c2ccccc12)NC(=O)[C@@H]1CCCN1C(=O)[C@H](Cc1ccc(O)cc1)NC(=O)[C@H](C)NC(=O)[C@@H](CCC(=O)O)NC(=O)CN1CCN(CC(=O)O)CCN(CC(=O)O)CCN(CC(=O)O)CC1` [[^111In]In-3, metal not drawn] ({DOTA}-[dE]AYPW[NMeNle]D[1Nal]-NH2) has a fraction unbound [1, 6] of 0.588, a fraction unbound [1, 7] of 0.54 and a logD [2] of -2.05.

In the case of `CCCC[C@@H](C(=O)N[C@@H](CC(=O)O)C(=O)N[C@@H](Cc1cccc2ccccc12)C(N)=O)N(C)C(=O)[C@H](Cc1c[nH]c2ccccc12)NC(=O)CNC(=O)[C@@H]1CCCN1C(=O)[C@H](Cc1ccc(O)cc1)NC(=O)[C@@H](CCC(=O)O)NC(=O)CN1CCN(CC(=O)O)CCN(CC(=O)O)CCN(CC(=O)O)CC1` [[^177Lu]Lu-2] [metal not drawn] ({DOTA}-[dE]YPGW[NMeNle]D[1Nal]-NH2), the “intact radiopeptide in blood” value ([3]; 60 min p.i., n = 1) is reported as 79.1%, the “intact radiopeptide in kidneys” value ([3]; 60 min p.i., n = 1) is reported as 11.0% and the “intact radiopeptide in liver” value ([3]; 60 min p.i., n = 1) is reported as 74.5%. For the same compound, the “intact radiopeptide in urine” value ([3]; 60 min p.i., n = 1) was 18.8%, the “tumor uptake in A431-CCK2R xenografts” value ([4]; 150 pmol, 4 h p.i.) was 15.26 ± 6.84 % IA/g and the tumor retention ([4]; A431-CCK2R xenografts, 12 h p.i. relative to 4 h p.i., 20 pmol) was > 60%. For the same compound, the “reduction of tumor uptake in A431-CCK2R xenografts” value ([4]; injected peptide amount increased to 150 pmol vs 20 pmol, 4 h p.i.) was “about 50%”.

In the case of `CCCC[C@@H](C(=O)N[C@@H](CC(=O)O)C(=O)N[C@@H](Cc1cccc2ccccc12)C(N)=O)N(C)C(=O)[C@H](Cc1c[nH]c2ccccc12)NC(=O)[C@@H]1CCCN1C(=O)[C@H](Cc1ccc(O)cc1)NC(=O)[C@H](C)NC(=O)[C@@H](CCC(=O)O)NC(=O)CN1CCN(CC(=O)O)CCN(CC(=O)O)CCN(CC(=O)O)CC1` [[^177Lu]Lu-3, metal not drawn] ({DOTA}-[dE]AYPW[NMeNle]D[1Nal]-NH2), the “intact radiopeptide in blood” value ([3]; 60 min p.i., n = 1) is reported as 63.5%, the “intact radiopeptide in kidneys” value ([3]; 60 min p.i., n = 1) is reported as 7.2% and the “intact radiopeptide in liver” value ([3]; 60 min p.i., n = 1) is reported as 35.6%. The “intact radiopeptide in urine” value ([3]; 60 min p.i., n = 1) was 20.6%, the tissue to tissue ratio at 4 h ([5]; A431-CCK2R xenograft tumor / blood, read-out: tumor-to-blood ratio) was 709 ± 470 and the tissue to tissue ratio at 4 h ([5]; A431-CCK2R xenograft tumor / kidney, read-out: tumor-to-kidney ratio) was 4.52 ± 1.41. For the same compound, the tissue to tissue ratio at 4 h ([5]; A431-CCK2R xenograft tumor / liver, read-out: tumor-to-liver ratio) was 58 ± 19.2, the tissue to tissue ratio at 4 h ([5]; A431-CCK2R xenograft tumor / stomach, read-out: tumor-to-stomach ratio) was 6.49 ± 1.32 and the tissue uptake at 4 h ([5]; A431-CCK2R xenograft tumor, read-out: tumor uptake in A431-CCK2R xenografts) was 28.6 ± 7.95 %ID/g. The tissue uptake at 4 h ([5]; A431-mock xenograft tumor, read-out: uptake in A431-mock xenografts) was 0.25 ± 0.06 %ID/g, the tissue uptake at 4 h ([5]; blood, read-out: uptake in blood) was 0.06 ± 0.03 %ID/g and the tissue uptake at 4 h ([5]; heart, read-out: uptake in heart) was 0.08 ± 0.01 %ID/g. The tissue uptake at 4 h ([5]; intestine, read-out: uptake in intestine) was 0.95 ± 0.23 %ID/g, the tissue uptake at 4 h ([5]; kidney, read-out: uptake in kidney) was 6.61 ± 1.75 %ID/g and the tissue uptake at 4 h ([5]; liver, read-out: uptake in liver) was 0.52 ± 0.12 %ID/g. It also gave a tissue uptake at 4 h ([5]; lung, read-out: uptake in lung) of 0.17 ± 0.05 %ID/g, a tissue uptake at 4 h ([5]; muscle, read-out: uptake in muscle) of 0.09 ± 0.05 %ID/g and a tissue uptake at 4 h ([5]; pancreas, read-out: uptake in pancreas) of 1.78 ± 0.72 %ID/g. The tissue uptake at 4 h ([5]; spleen, read-out: uptake in spleen) was 0.19 ± 0.02 %ID/g and the tissue uptake at 4 h ([5]; stomach, read-out: uptake in stomach) was 4.73 ± 2.29 %ID/g.

Reference: publication PMC7734625, “Stabilization Strategies for Linear Minigastrin Analogues: Further Improvements via the Inclusion of Proline into the Peptide Sequence” (Journal of Medicinal Chemistry, 2020)
